Results: patent US20190209641A1, “METHODS FOR PREVENTING OR TREATING METABOLIC SYNDROME” (Cornell University, priority 2009, published 2019)
Several values for one entry are separate records, joined by “and”; a condition that tells them apart may be missing. Equal entries are not always repeated. Non-standard residues stand in square brackets, D forms with d. No end group written: not given here.

Columns and labels:
DIO C57BL/6 mice = assay: Diet-induced obesity (DIO) in C57BL/6 mice, Example 3; assay type: in vivo, mouse; conditions: for Glucose Tolerance (IPGTT), Week 5: DIO vehicle 1719.7 ± 56.8, chow vehicle 1213.6 ± 54.1; for glucose tolerance in the obese mouse model (in words): IPGTT, 1 g/kg D-glucose i.p.; for abdominal fat index / subcutaneous fat index: after 14 weeks of treatment
Method: To analyze the pharmacodynamic effects of SS-31 and SS-20 against diet-induced obesity (D10) in C57BL/6 mice, the test subjects were fed either a normal diet or a high-fat diet having the composition shown in Table 9.
After several days of acclimation, animals were weighted and randomly assigned to the following treatment groups.
Starting from the first day of treatment, animals in Groups B to I were switched to HFD. During the entire treatment period, the following activities were performed on specific days.
Dose Preparation & Administration. The treatment was given once a day (5 days a week) with injection site alternated. The concentration of SS-31 and SS-20 dosed at 3 mg/kg was 0.6 mg/ml and that of 10 mg/kg was 2 mg/ml. The treatment volume (0.05 mUl0 g for s.c. and 0.2 ml/10 g for p.o.) for each test animal was adjusted according to its body weight taken on the beginning of each week.
Blood Sample Collection. Blood samples were collected by tail snip according to the Medicilon/MPI Preclinical Research (Shanghai) LLC SOP on Blood Collection Techniques. […] Collected blood samples were set at room temperature for 1 hour to allow clotting before being centrifuged at 2,000×g for 10 min. The supernatant were collected and re-centrifuged at 2,000×g for another 10 min. to generate the serum. Part of the serum samples were used for total cholesterol (TC) analysis immediately. The rest were stored at −20° C. until being used in insulin analysis.
Serum Insulin, Triglyceride (TG) & Total Cholesterol (TC). Serum insulin levels were measured using Rat/Mouse Insulin ELISA Kit from Millipore Corporation (Catalog # EZRMI-13K, St. Charles, Mo., USA). Serum TG levels were measured by automatic biochemical analyzer. FIG. 5A is a chart illustrating the effects of peptide treatment on triglycerides in a murine model of diet-induced obesity after 14 weeks of treatment. FIG. 5B is a chart illustrating the effects of peptide treatment on total cholesterol in a murine model of diet-induced obesity after 14 weeks of treatment. FIG. 5C is a chart illustrating the effects of peptide treatment on HDL cholesterol in a murine model of diet-induced obesity after 14 weeks of treatment.
IPGTT. IPGTT was performed according to the Medicilon-MPI Preclinical Research (Shanghai) LLC SOP on Intraperitoneal (IP) Glucose Tolerance Test with slight modifications. Mice were fast overnight before the baseline glucose levels assessed in the next morning. After that, an IP injection of 1 g/kg D-glucose was given to each animal and the blood glucose levels were then measured on 15, 30, 60 and 120 minutes post the IP injection.

HFD/STZ SD rats = assay: Rat model of metabolic syndrome (HFD + low-dose STZ), Example 1; assay type: in vivo; conditions: for body weight increase over the 10-week treatment period: 10 mg/kg s.c. q.d. 5 days a week, by the end of 10th week, HFD/STZ control 3.6%, NRC 23.3%; for effect on blood glucose: 10 mg/kg s.c., week 4 post peptide treatment, vs. HFD/STZ vehicle rats
Method: The effects of aromatic-cationic peptides in treating a subject suffering from metabolic syndrome were investigated in a Sprague-Dawley rat model over […]. The example describes the results of such experiments.
In vivo models. A rat model of metabolic syndrome was established by combination of 6-week HFD and low-dose STZ (40 mg/kg) injection in SD rats. Rats of the same batch fed with normal chow (NRC) were used as a control.
Study groups. Group A: NRC+PBS s.c. q.d. (Mon-Fri)*, n=5; Group B: HFD +STZ+PBS s.c. q.d. (Mon-Fri), n=8; Group C:HFD+STZ+SS-31 10 mg/kg s.c. q.d. (Mon-Fri), n=8; Group D: HFD+STZ+SS-20 10 mg/kg s.c. q.d. (Mon-Fri), n=8.
Preparation and administration of test compounds. SS-31 or SS-20 was dissolved in 0.01 M PBS (pH 7.0). The 10-week treatment was given once a day (5 days a week) with s.c. injection site alternated. The concentration of SS-31 and SS-20 was 5.0 mg/mL. The injection volume (0.2 mL/100 g) for each test animal was adjusted according to body weight taken on the beginning of each week. STZ was dissolved in 0.1 M citrate buffer (pH 4.5) to concentration of 20 mg/mL. STZ is injected intraperitoneally.
Blood glucose. Blood glucose was tested by ACCU-CHEK® Advantage™ blood glucose meter and test strips from Roche diagnostics GmbH (Mannheim, Germany).
Blood sample handling. Blood samples were collected by tail snip. […] Collected blood samples were set at room temperature for 30 min to allow clotting before being centrifuged at 1,200×g for 10 min. The supernatant were collected and re-centrifuged at 1,200×g for another 5 min to generate the serum. Serum samples were aliquotted and stored at −20° C. until being used in analysis.
Statistics: Statistic analysis oft-test and one-way ANOVA was performed by SPSS (Statistical Package for Social Science) analysis software.

HFD/STZ rats = assay: HFD/STZ rat model of metabolic syndrome, 10-week peptide treatment, Example 2; assay type: in vivo; conditions: for TG level before peptide treatment: baseline; for change in blood glucose during 10-week peptide treatment / change in body weight during 10-week peptide treatment: SS-31 10, 3, 1 mg/kg or SS-20 10, 3 mg/kg s.c. once daily 5 days a week
Method: This study was initiated to investigate the effects of SS-31 and SS-20 in a model of metabolic syndrome over a 10 week period. Rats were fed with a high-fat diet for 6 weeks and then administered a single dose of STZ (30 mg/kg). The rats were maintained on a HFD until 14 weeks after STZ administration. Control rats fed normal rat chow (NRC) for 6 weeks were then administered citrate buffer without STZ. After 5 months, diabetic rats were treated with SS-31 (10 mg/kg, 3 mg/kg, 1 mg/kg s.c. once daily), SS-20 (10 mg/kg, 3 mg/kg s.c. once daily) or vehicle (saline) 5 days a week for 10 weeks. The study groups were as follows:
Group A: HFD/STZ+SS-31 10 mg/kg s.c. q.d. (Mon-Fri.), n=12;
Group B: HFD/STZ+SS-31 3 mg/kg s.c. q.d. (Mon-Fri.), n=12;
Group C: HFD/STZ+SS-31 1 mg/kg s.c. q.d. (Mon-Fri.), n=10;
Group D: HFD/STZ+SS-20 10 mg/kg s.c. q.d. (Mon-Fri.), n=10;
Group E: HFD/STZ+SS-20 3 mg/kg s.c. q.d. (Mon-Fri.), n=10;
Group F: HFD/STZ+vehicle s.c. q.d. (Mon-Fri.), n=10;
Group G: NRC +vehicle s.c. q.d. (Mon-Fri.), n=10.
HFD feeding for 6 weeks produced obvious body weight gain (452.9±3.8g in HFD group vs. 425.5±7.1 g, P<0.01) and STZ administration increased blood glucose (26.5±0.5 mmol/L in HFD/STZ rats vs. 9.8±0.5 mmol/L in NRC rats, P<0.001) and hyperlipidemia (P<0.01), indicating a metabolic syndrome-like disorder in these test subjects.

[1] = tested on: STZ-induced diabetic Sprague-Dawley rats; assay: STZ diabetes model in male Sprague-Dawley rats, Example 4; assay type: in vivo, rat; conditions: 10 mg/kg s.c. q.d. 5 days a week, after peptide treatment for 2 weeks or 4 weeks, vs. STZ/Saline group
Method: The objective of this study was to explore the protective effect of SS-31 or SS-20 against Streptozotocin (STZ) induced diabetic complications and metabolic syndrome in male Sprague-Dawley rats.
Rat models of type 1 diabetes were established by administration of high-dose STZ (30 mg/kg). Rats of the same batch fed with regular chow are used as normal control. The study groups included: Group A: STZ+SS-31 10 mg/kg s.c. q.d. (M.-F.), n=11; Group B: STZ+SS-20 10 mg/kg s.c. q.d. (M.-F.), n=11; Group C: STZ+vehicle s.c. q.d. (M.-F.), n=10; Group D: NRC +vehicle s.c. q.d. (M.-F.), n=10.
The compounds were dissolved in saline. The treatment was given once a day (5 days a week) with injection site to be alternated. The concentration of SS-31 and SS-20 dosed at 10mg/kg is 5mg/ml. The treatment volume (0.2 ml/100 g for s.c.) for each test animal was adjusted according to its body weight taken on the beginning of each week. STZ was dissolved in 0.1 M citrate buffer (pH4.5) to concentration of 20 mg/mL. STZ was injected intraperitoneally.

[2] = 10 mg/kg s.c. q.d. 5 days a week

Compound	Glucose Tolerance (IPGTT), Week 5 (DIO C57BL/6 mice; 2 mg/kg p.o.)	body weight increase over the 10-week treatment period (HFD/STZ SD rats)	effect on blood glucose (HFD/STZ SD rats)	TG level before peptide treatment (HFD/STZ rats; 3 mg/kg group)	TG level after 10 weeks' peptide treatment (HFD/STZ rats; 3 mg/kg s.c. q.d. 5 days a week)	TG level before peptide treatment (HFD/STZ rats; 10 mg/kg group)	TG level after 10 weeks' peptide treatment (HFD/STZ rats; [2])	change in blood glucose during 10-week peptide treatment (HFD/STZ rats)	change in body weight during 10-week peptide treatment (HFD/STZ rats)	Glucose Tolerance (IPGTT), Week 5 (DIO C57BL/6 mice; 3 mg/kg s.c.)	Glucose Tolerance (IPGTT), Week 5 (DIO C57BL/6 mice; 10 mg/kg s.c.)	glucose tolerance in the obese mouse model (in words) (DIO C57BL/6 mice)	abdominal fat index (DIO C57BL/6 mice)	subcutaneous fat index (DIO C57BL/6 mice)	TG level [1]	TG level before peptide treatment (HFD/STZ rats; 3 mg/kg group, 3 mg/kg)	TG level after 10 weeks' peptide treatment (HFD/STZ rats; 3 mg/kg s.c. q.d. 5 days a week, 3 mg/kg)
CN(CCOc1ccc(CC2SC(=O)NC2=O)cc1)c1ccccn1 (centres unmarked) [Rosi, Rosiglitazone, reference compound]	1487.5 ± 44.2																
D-Arg-2′,6′-Dmt-Lys-Phe-NH2 [SS-31]		16.3%	down-regulation effect on blood glucose	4.17 ± 0.88 mM	2.46 ± 0.52 mM	3.77 ± 0.38 mM	1.75 ± 0.33 mM	no obvious changes	no obvious changes	1460.6 ± 64.1	1584.3 ± 78.3	significantly improve glucose tolerance	capable of reducing	capable of reducing	increased less than STZ/Saline group		
F[dR]FK-NH2 [SS-20]		9.0%	down-regulation effect on blood glucose			4.17 ± 1.02 mM	1.97 ± 0.46 mM	no obvious changes	no obvious changes	1534.1 ± 53.3	1494.5 ± 54.4	significantly improve glucose tolerance	capable of reducing	capable of reducing	increased less than STZ/Saline group	4.66 ± 1.40 mM and 3.90 ± 0.65 mM	2.43 ± 0.47 mM and 3.70 ± 1.16 mM
